We go through one compound from patent publication US7071206B2, “Agents for treating neurodegenerative disorders” (Medivation, Inc., priority 1995, dated 2006).

Data set [1] deals with patients suffering from Alzheimer's disease. The note with it: general statement on the agent used in medicine as antiallergic; cited from earlier work.
For data set [2] the test system is unchanged. Description: Clinical trial of dimebon: EEG investigations. It counts as in vivo, human. The note with it: any patients except one (observation 12: increase of focal Δ-waves, retardation of the rhythm). An excerpt: In observations 2, 11 and 14 the weakly positive dynamics of the EEG was manifested in weaker outbursts during hyperventilation and normalization of the zonal differences.

The test system is the same in data set [3]. Description: Clinical trial of dimebon tablets, Hazegawa's scale (0 score = poorest result). It is filed as in vivo, human. As for the experimental part:
(§1) The test was carried out under the direct supervision by two of the inventors, namely E. E. Bukatina and V. Grigorieva, in 14 patients who agreed to take part in the tests, 13 of whom lived in a boarding house for senile persons and one patient lived with their family.
Alzheimer's disease was diagnosed on the basis of criteria ICD-10 NINCDS ADRDA.
(§2) Dimebon in the form of tablets (comprising 10 mg of dimebon, 30 mg of lactose, 5 mg of magnesium stearate was prescribed for oral administration in a dose of 0.02 g three to times a day. The patients living in the boarding house received dimebon for 58 days. A patient (observation 14) who was under outpatient observation continued taking the agent for a month after the completion of the tests.
Before the treatment with dimebon, and at 4 and 8 weeks after treatment the patients were examined according to Hazegawa's scale and the inventors' scale (“Social and Clinical Psychiatry”, 1992, No.4, pp.29–37) which includes the following indexes: (1) orientation in locality, time, immediate surroundings and one's own personality; (2) orientation in space; (3) memory for the past; (4) memory for the present; (5) “life in the past”; (6) (a) articulation, (b) difficulty in finding words, and distortion of words; (c) naming of objects; (d) following instructions; (7) concentration (of attention); (8) an affective sphere; (a) high spirits, (b) low spirits; (9) delirium; (10) hearing hallucinations; (11) visual hallucinations; (12) senile or senile-like confusion (when motion anxiety is accompanied by the revival of the past experience); (13) irritability; (14) anxiety; (15) asthenia; (16) headaches; (17) dizziness; (18) tearfulness; (19) spontaneous activity; (20) elementary self-service; and (21 control of sphincters.
According to the Hazegawa's scale, the 0 score indicates the poorest result; on the contrary, according to the inventors' scale, the 0 score indicates the absence of a symptom 4 score indicates the greatest manifestation thereof. […] Before the therapy was started, the patients had been independently examined by two doctors who used the inventors' scale. The examination during the treatment was carried out by the doctors using both the scales. The evaluation according to all the inventors' scale points during all the tests and their variations during the treatment with dimebon are given in the Appendix.
Both absolute evaluations of the signs under investigation (the evaluation prior to treatment is a mean evaluation of the two examinations) and variations in them were analysed in the course of therapy. In doing so, only those changes that were beyond the range of evaluations obtained in two pre-treatment examinations were taken into consideration. […]

For data set [4] the test system is unchanged. The data set can be described thus: Clinical trial of dimebon: clinical observations of the mental state. It is filed as in vivo, human. As for the experimental part:
as §1, §2
The test results reflected the condition of the patients at the time of the examination. Any changes in the metal state observed in the interval between the tests and disappearing by the moment of examination according to the scale were described in the section “Clinical Observations”.
The pattern of the dynamics of the mental states of the patients during the treatment with dimebon registered in clinical observations is presented in Table 17.

For `Cc1ccc2c(c1)c1c(n2CCc2ccc(C)nc2)CCN(C)C1` [No. 10, 2,8-dimethyl-5-[2-(6-methyl-3-pyridyl)ethyl]-2,3,4,5-tetrahydro-1H-pyrido[4,3-b]indole], the “toxicity and negative side-effects” value in data set [1] was “non-toxic and does not show any negative side-effects”. Also, the “changes in the EEG during the course of treatment” value in data set [2] is listed as “No changes in the EEG”. The “Evaluation according to Hazegawa's scale, M +/− m” value (shortened to “Evaluation according”) in data set [3] (mean of 7 patients with nonprofound dementia, after 4 weeks) is recorded as 20.79 +/− 1.85. In addition, the “Evaluation according” value in data set [3] (mean of 7 patients with nonprofound dementia, after 8 weeks) is 23 +/− 1.17. Further, the “Evaluation according” value in data set [3] (mean of 14 patients, after 4 weeks) is recorded as 14.68 +/− 1.87. The “Evaluation according” value in data set [3] (mean of 14 patients, after 8 weeks) was 15.68 +/− 2.39. For the same compound, in data set [4] (14 patients), the “number of patients who became more active (cheerfulness and freshness)” value amounted to 4 patients; the “number of patients who complained of headaches much less frequently” value came out at 4 patients; the “number of patients who slept better” value is recorded as 2 patients; the “number of patients with a distinct antidepressive effect” value was 8 patients. Besides, in data set [4] (14 patients), the “number of patients with a greater interest in what was happening around” value was found to be 8 patients; the “psychopatic-like and depressive manifestations, conclusion” value is on record as “definite positive effect”. For the same compound, the “psychopathic-like symptoms (lack of restraint, touchiness, conflict making, evil-mindedness or aggressiveness)” value in data set [4] (all 7 patients who suffered from them, during the first 2 weeks of therapy) was “decreased significantly”.
